Experimental data from BindingDB's records for doi:10.1021/acsmedchemlett.1c00082 (Bristol Myers Squibb, 2021).

Assay: Antagonist activity at CCR2 in human peripheral blood mononuclear cells assessed as reduction in MCP1-induced chemotaxis measured after 30 mins by calcein-AM dye based fluorescence assay

Which IC50 does the source give for CN[C@@H]1CC[C@H](N2CC[C@H](Nc3ncnc4ccc(C(F)(F)F)cc34)C2=O)[C@H](NC(C)=O)C1 here?
The IC50 was 1.7 nM.
